Here are results for 90 compounds from the RepoRT retention time repository (doi:10.1038/s41586-021-03707-9).

The first series can be described thus: Waters ACQUITY UPLC BEH C18, 100 × 2.1 mm, 1.7 µm, 40 °C, 0.28 mL/min, estimated dead time 0.63 min; A: water + 6.5 mM ammonium hydroxide; B: methanol + 6.5 mM ammonium hydroxide; gradient (min/%B) 0/0.5 4/70 4.5/98 5.4/98. The settings on record: stereoisomer not certain.
As to `OCCNCCO`, the LC retention time was 0.945 min.

With `O=CC(O)C1OC(=O)C(O)C1O` (stereo not given), the LC retention time is 0.884 min.

Turning to `OCC1OC(Oc2ccc(O)cc2)C(O)C(O)C1O` (stereo not given), the LC retention time is 1.81 min.

For `NCCCCC(N)C(=O)O` (stereo not given), the LC retention time was 0.794 min.

As for `NC(=O)c1ncn(C2OC(CO)C(O)C2O)n1` (stereo not given), the LC retention time was 0.858 min.

With `O=C(O)c1cc(O)ccc1O`, the LC retention time is 1.63 min.

As to `NC(=O)c1ccc[n+](C2OC(COP(=O)(O)OP(=O)(O)OCC3OC(n4cnc5c(=O)[nH]cnc54)C(O)C3O)C(O)C2O)c1` (stereo not given), the LC retention time is 1.26 min.

With `O=S(=O)(O)c1cccc2cccc(Nc3ccccc3)c12`, the LC retention time is 5.12 min.

As for `O=C(O)C(O)c1ccccc1` (stereo not given), the LC retention time is 1.59 min.

As for `CCCCCCC(=O)O`, the LC retention time is 4.06 min.

Consider `O=C(O)Cc1ccccc1O`, for which the LC retention time was 2.46 min.

Regarding `O=c1[nH]cc(CO)c(=O)[nH]1`, the LC retention time was 0.855 min.

On to `CC(=O)NC(CS)C(=O)O` (stereo not given), for which the LC retention time was 1.15 min.

Turning to `Cc1ccccc1C(=O)O`, the LC retention time was 2.21 min.

For `OCc1cccc(O)c1`, the LC retention time is 2.93 min.

For `CCCC(N)C(=O)O` (stereo not given), the LC retention time was 1.02 min.

`CC(=O)Oc1cccc(O)c1`: the LC retention time was 3.06 min.

Consider `Cc1cc(C(=O)O)ccc1O`, for which the LC retention time is 3.54 min.

Consider `CC(C)(CO)C(O)C(=O)NCCC(=O)O` (stereo not given), for which the LC retention time is 1.7 min.

Take `CC(C)CC(=O)C(=O)O`: the LC retention time was 2.48 min.

Turning to `NC(N)=NCCCC(N)C(=O)O` (stereo not given), the LC retention time is 0.845 min.

Turning to `O=C1OC(C(O)CO)C(=O)C1=O` (stereo not given), the LC retention time is 0.862 min.

Take `NCC(N)C(=O)O` (stereo not given): the LC retention time was 0.768 min.

For the compound `O=Cc1c[nH]c2ccccc12`, the LC retention time is 4.19 min.

Consider `CCC(CO)C(=O)O` (stereo not given), for which the LC retention time was 0.857 min.

Consider `CC(C)=CC(=O)SCCNC(=O)CCNC(=O)C(O)C(C)(C)COP(=O)(O)OP(=O)(O)OCC1OC(n2cnc3c(N)ncnc32)C(O)C1OP(=O)(O)O` (stereo not given), for which the LC retention time was 2.95 min.

With `CC(C)Cc1ccc(C(C)C(=O)O)cc1` (stereo not given), the LC retention time was 5.27 min.

As to `NCCC(=O)O`, the LC retention time was 0.761 min.

With `NC(CO)C(=O)O` (stereo not given), the LC retention time was 0.761 min.

As for `CC=C(C)C(=O)O`, the LC retention time was 1.61 min.

`O=C(CO)C(O)C(O)C(O)CO` (stereo not given): the LC retention time was 0.816 min.

With `CCCC(=O)Nc1ccc(OCC(O)CNC(C)C)c(C(C)=O)c1` (stereo not given), the LC retention time was 4.82 min.

Consider `Cc1cn(C2CC(O)C(COP(=O)(O)OP(=O)(O)OC3OC(CO)C(O)C(O)C3O)O2)c(=O)[nH]c1=O` (stereo not given), for which the LC retention time was 0.923 min.

Turning to `O=C(O)CCCCCCCCCCCO`, the LC retention time is 4.86 min.

`O=c1[nH]c(=O)c2[nH]c(=O)[nH]c2[nH]1`: the LC retention time was 0.828 min.

Turning to `CC(=O)CCC(=O)O`, the LC retention time is 0.87 min.

As to `Cc1cccc(O)c1O`, the LC retention time is 4 min.

As for `CC(C)C(N)C(=O)O` (stereo not given), the LC retention time was 1 min.

As to `CC(CCC(=O)O)C1CCC2C3C(O)CC4CC(O)CCC4(C)C3CC(O)C12C` (stereo not given), the LC retention time was 4.99 min.

As to `O=C(O)C1CCC(O)CC1` (stereo not given), the LC retention time is 0.776 min.

With `NC(Cc1ccccc1)C(=O)O` (stereo not given), the LC retention time is 2.37 min.

As to `NC(CCO)C(=O)O` (stereo not given), the LC retention time is 0.762 min.

A short description of the next series: RP, Waters ACQUITY UPLC HSS C18, 100 × 2.1 mm, 1.7 µm, 40 °C, 0.35 mL/min, estimated dead time 0.63 min; A: water + 0.1% formic acid; B: methanol + 0.1% formic acid; gradient (min/%B) 0/0.5 4/70 4.5/98 5.4/98. The settings on record: stereoisomer not certain.
Take `CCCc1nc(C)c2c(=O)[nH]c(-c3cc(S(=O)(=O)N4CCN(CC)CC4)ccc3OCC)nn12`: the LC retention time is 4.47 min.

Regarding `O=Cc1ccccc1C(=O)O`, the LC retention time is 3.24 min.

In the case of `Nc1ccc(C(=O)O)c(O)c1`, the LC retention time is 2.69 min.

For the compound `NC12CC3CC(CC(C3)C1)C2`, the LC retention time was 3.49 min.

In the case of `CC(CCC(=O)O)C(=O)O` (stereo not given), the LC retention time is 2.97 min.

For `Nc1ccn(C2OC(CO)C(OP(=O)(O)O)C2O)c(=O)n1` (stereo not given), the LC retention time is 0.912 min.

On to `CN=C(N)N`, for which the LC retention time was 0.776 min.

For the compound `Nc1ccc(O)cc1`, the LC retention time was 0.829 min.

Regarding `O=C(O)c1c[nH]c2ccccc12`, the LC retention time is 4.08 min.

Take `O=P(O)(O)OCC1OC(O)C(O)C1O` (stereo not given): the LC retention time is 0.778 min.

For `C[N+](C)(C)[O-]`, the LC retention time was 0.766 min.

For `O=C(O)C=Cc1cccc(O)c1`, the LC retention time was 4.38 min.

As to `CC(C(=O)O)C(=O)O`, the LC retention time was 1.87 min.

For `CN(C)CCC=C1c2ccccc2COc2ccccc21`, the LC retention time is 4.44 min.

As for `CC12CCC(=O)C=C1CCC1C2CCC2(C)C1CCC2(O)C(=O)CO` (stereo not given), the LC retention time is 5.33 min.

Regarding `COc1cc(C=CC(=O)O)ccc1O`, the LC retention time was 3.87 min.

Turning to `O=C(O)CC(O)(CC(=O)O)C(=O)O`, the LC retention time is 1.43 min.

Consider `CC(CC(=O)O)C(=O)O` (stereo not given), for which the LC retention time was 2.58 min.

For `NC(N)=S`, the LC retention time is 0.847 min.

In the case of `CC(=O)OCC1OC(OC(C)=O)C(OC(C)=O)C(OC(C)=O)C1OC(C)=O` (stereo not given), the LC retention time was 4.5 min.

With `Cn1ccc(=O)n(C)c1=O`, the LC retention time was 2.38 min.

Turning to `O=c1ccc2ccccc2o1`, the LC retention time is 4.19 min.

`O=P(O)(O)OC(CO)CO`: the LC retention time is 0.815 min.

For `O=C(O)CCO`, the LC retention time is 0.782 min.

Take `CCOC(=O)C(=O)C(C)C(=O)OCC` (stereo not given): the LC retention time was 4.56 min.

As for `CC(C)CC(O)C(=O)O` (stereo not given), the LC retention time was 3.94 min.

Turning to `O=C(O)c1cccnc1C(=O)O`, the LC retention time is 1.35 min.

With `NC(N)=NC(CC(=O)O)C(=O)O` (stereo not given), the LC retention time is 0.802 min.

For the compound `O=C(O)CC=CCC(=O)O`, the LC retention time is 2.67 min.

`O=C(O)C1(O)CC(O)C(O)C(O)C1` (stereo not given): the LC retention time was 0.867 min.

In the case of `COC(=O)c1cccnc1`, the LC retention time is 3.23 min.

In the case of `NCc1ccccc1`, the LC retention time is 1.99 min.

Regarding `NC(COP(=O)(O)O)C(=O)O` (stereo not given), the LC retention time is 0.759 min.

As for `CC(=O)NC(Cc1ccc(O)cc1)C(=O)O` (stereo not given), the LC retention time was 2.89 min.

Take `CNC(CC(=O)O)C(=O)O` (stereo not given): the LC retention time is 0.772 min.

Consider `Cc1ncc(C[n+]2csc(CCOP(=O)(O)O)c2C)c(N)n1`, for which the LC retention time is 0.762 min.

Regarding `CN1C2CCC1CC(OC(=O)C(CO)c1ccccc1)C2` (stereo not given), the LC retention time was 3.22 min.

Regarding `CCCC(=O)NCC(=O)O`, the LC retention time was 2.36 min.

On to `NC(=O)Cc1ccccc1`, for which the LC retention time is 3.38 min.

Regarding `NC(Cc1ccc(O)cc1)C(=O)O` (stereo not given), the LC retention time is 1.66 min.

As for `NC(CS)C(=O)O` (stereo not given), the LC retention time was 0.798 min.

As for `CNCCc1ccccc1`, the LC retention time is 2.61 min.

In the case of `CC(=O)NC1C(O)CC(O)(C(=O)O)OC1C(O)C(O)CO` (stereo not given), the LC retention time is 0.846 min.

Consider `O=C(O)c1ccccc1O`, for which the LC retention time is 2.19 min.

For the compound `COc1ccc(C2Sc3ccccc3N(CCN(C)C)C(=O)C2OC(C)=O)cc1` (stereo not given), the LC retention time is 4.53 min.

As for `COc1ccc(C=O)cc1`, the LC retention time is 0.897 min.

`CC1NCCc2cc(O)c(O)cc21` (stereo not given): the LC retention time is 1.61 min.

As for `CCOC(=O)CC(=O)OCC`, the LC retention time is 4.32 min.
